Experimental data: US20220193189A1, “USE OF Dvl3-DEP PEPTIDE IN PREPARATION OF MEDICAMENT FOR REPAIRING SERTOLI CELL INJURY IN TESTES” (The Second Affiliated Hospital and Yuying Children's …, priority 2020, published 2022)

Columns and labels:
Sertoli cells = test: IF staining of tight junction-associated protein ZO-1 in Sertoli cells in vitro; format: cell-based, SD rat; conditions: PFOS 20 μM for 24 h, empty plasmid transfection group, day 6, vs blank control group
Excerpt: A total of 10 male SD rats at the age of 20 days were sacrificed and testes were collected. The testicular envelope and free seminiferous tubules were removed, and the remaining tissue was cut to 1 mm^3 with scissors and then digested successively with trypsin, protease inhibitor, collagenase, hyaluronidase, and other enzymes. Cell masses obtained from digestion were pipetted up and down with a glass Pasteur pipette and then subjected to density gradient centrifugation, and finally the volume of precipitated cells was measured and converted into the number of cells. Finally, the cells were cultivated in an F12/DMEM cell culture medium with human transferrin (5 μg/mL), bovine insulin (10 μg/mL), bacitracin (5 μg/mL), epithelial growth factor (EGF) (2.5 ng/mL), and the like. The cells were cultivated at 5% CO2 and 35° C. to obtain primary Sertoli cells. […]
In order to observe the tight junction morphology among Sertoli cells cultivated in vitro, IF staining (green fluorescent) was conducted using an antibody for the Sertoli cell tight junction-associated protein ZO-1 (ThermoFisher, 61-7300), and the nucleus was stained with DAPI (blue fluorescence) after the above staining. After mounting, a fluorescence microscope was used to observe and take pictures.

[1] = tested on: polymerized/free Actin in Sertoli cells; test: G-Actin/F-actin polymerization test (ultracentrifugation, Western blot); format: cell-based, SD rat; conditions: after PFOS treatment
Excerpt: (§1) A total of 10 male SD rats at the age of 20 days were sacrificed and testes were collected. The testicular envelope and free seminiferous tubules were removed, and the remaining tissue was cut to 1 mm^3 with scissors and then digested successively with trypsin, protease inhibitor, collagenase, hyaluronidase, and other enzymes. Cell masses obtained from digestion were pipetted up and down with a glass Pasteur pipette and then subjected to density gradient centrifugation, and finally the volume of precipitated cells was measured and converted into the number of cells. Finally, the cells were cultivated in an F12/DMEM cell culture medium with human transferrin (5 μg/mL), bovine insulin (10 μg/mL), bacitracin (5 μg/mL), epithelial growth factor (EGF) (2.5 ng/mL), and the like. The cells were cultivated at 5% CO2 and 35° C. to obtain primary Sertoli cells.
Isolation and cultivation of cells were conducted according to the method in Example 2, and obtained cells were inoculated in a prepared 6-well plate. Cells in each group were collected immediately after the experiment ended. Related Actin and Tubulin polymerization tests were conducted on cells in the DEP peptide overexpression group and cells in the empty plasmid transfection group using G-Actin/F-actin polymerization detection kit (G-Actin/F-actin In Vivo Assay Biochem Kit, BK037, Cytoskeleton, Inc) and Microtubule/Tubulin polymerization detection kit (Microtubule/Tubulin In Vivo Assay Biochem Kit, BK038, Cytoskeleton, Inc). Related detection methods can refer to product descriptions. The main purpose of these tests is to separate polymerized cytoskeleton proteins (F-actin and Microtubule) and free monomeric cytoskeleton proteins (G-actin and Tubulin) in a cell lysate by ultracentrifugation. Then the polymerized cytoskeleton protein (a precipitate obtained from the ultracentrifugation) and the monomeric cytoskeleton protein (a supernatant obtained from the ultracentrifugation) in the cell lysate system were detected separately by Western blot. […]

[2] = tested on: polymerized/free Tubulin in Sertoli cells; test: Microtubule/Tubulin polymerization test (ultracentrifugation, Western blot); format: cell-based, SD rat; conditions: after PFOS treatment
Excerpt: as §1
Isolation and cultivation of cells were conducted according to the method in Example 2, and obtained cells were inoculated in a prepared 6-well plate. Cells in each group were collected immediately after the experiment ended. […] Then the polymerized cytoskeleton protein (a precipitate obtained from the ultracentrifugation) and the monomeric cytoskeleton protein (a supernatant obtained from the ultracentrifugation) in the cell lysate system were detected separately by Western blot. […]

[3] = cited from earlier work
[4] = pCI-neo empty plasmid transfection group

Molecule | cell-cell junction interface (ZO-1 IF staining) (Sertoli cells) | F-actin level (precipitate of ultracentrifugation, Western blot) [1, 4] | Microtubule level (precipitate of ultracentrifugation, Western blot) [2, 4] | human metabolic half-life [3] | F-actin level (precipitate of ultracentrifugation, Western blot) ([1]; DEP peptide overexpression group, positive control 0.1 uM phalloidin) | free G-actin content in the cell lysate supernatant (Western blot) ([1]; empty plasmid transfection group vs DEP peptide overexpression group) | Microtubule level (precipitate of ultracentrifugation, Western blot) ([2]; DEP peptide overexpression group, positive control 20 uM paclitaxel)
O=S(=O)(O)C(F)(F)C(F)(F)C(F)(F)C(F)(F)C(F)(F)C(F)(F)C(F)(F)C(F)(F)F [PFOS, Perfluorooctane sulphonate] | significantly damaged | low, which was almost comparable to that in the negative control group | low, which was almost comparable to that in the negative control group | more than 5 years |  |  | 
DEP peptide: Dvl3-DEP peptide with amino acid sequence SEQ ID NO. 1, overexpressed in Sertoli cells (protein, amino acid sequence of Dvl3-DEP peptide, 1, overexpressed in Sertoli cells) PESGLEVRDRMWLKITIPNAFIGSDVVDWLYHNVEGFTDRREARKYASNLLKAGFIRHTVNKITFSEQCYYIFGD |  |  |  |  | lower than that in the positive control group but significantly higher than that in the empty plasmid transfection group | empty plasmid transfection group was higher than that of the DEP peptide overexpression group | lower than that in the positive control group but significantly higher than that in the empty plasmid transfection group
